The values that follow come from patent US20070049593A1 (priority 2004, published 2007).

This test concerns the target T1, HCV polymerase (Hepatitis C virus genotype 1b, UniProt P26663).
T1 construct: a region encoding NS5B (J Virol 1991 March, 65(3), 1105-13, 544 amino acids after deletion of 47 amino acids on the C-terminal); 6xHis (C); made in house; host or cells: Escherichia coli
The test can be described thus: biochemical. Further details: species or system HCV BK strain. In short, it runs like this: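 His-tagged NS5B (BK strain, 47-aa C-terminal deletion, E. coli-expressed) at 0.5 μg/ml copied 5 μg/ml run-off RNA bearing the HCV 3′ UTR with 2 μM UTP plus [3H]UTP, 50 μM ATP/GTP, in pH 7.5 Tris with 5 mM MgCl2, 25 °C, 90 min. TCA-precipitated RNA was counted and IC50 calculated.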

Structures can show the parent of a compound that is named as a salt.

T1 sequence (P26663 2420-2963): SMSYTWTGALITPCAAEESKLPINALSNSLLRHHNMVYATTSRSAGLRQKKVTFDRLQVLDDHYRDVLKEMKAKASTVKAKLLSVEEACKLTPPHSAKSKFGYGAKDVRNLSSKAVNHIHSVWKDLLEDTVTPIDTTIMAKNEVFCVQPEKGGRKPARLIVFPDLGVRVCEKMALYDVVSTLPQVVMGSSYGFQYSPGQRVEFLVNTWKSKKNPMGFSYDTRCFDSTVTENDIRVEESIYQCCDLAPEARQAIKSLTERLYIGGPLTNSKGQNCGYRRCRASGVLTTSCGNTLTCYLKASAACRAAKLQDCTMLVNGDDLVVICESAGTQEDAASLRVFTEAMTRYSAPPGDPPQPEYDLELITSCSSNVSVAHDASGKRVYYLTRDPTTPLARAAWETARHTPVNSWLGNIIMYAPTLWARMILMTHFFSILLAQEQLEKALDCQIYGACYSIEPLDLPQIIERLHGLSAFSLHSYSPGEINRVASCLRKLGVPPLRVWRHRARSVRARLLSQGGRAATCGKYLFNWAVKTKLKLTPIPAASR

By IC50 is commonly meant the concentration that gives 50% inhibition. A lower IC50 goes with greater potency. Consider `CN(C)CCN1CCn2c(c(C3CCCCC3)c3ccc(C(=O)O)cc32)-c2ccc(OCCOc3ccccc3)cc21` [Example 1-548, 13-cyclohexyl-5-(2-dimethylaminoethyl)-3-(2-phenoxyethoxy)-6,7-dihydro-5H-benzo[5,6][1,4]diazepino[7,1-a]indole-10-carboxylic acid dihydrochloride], for which the IC50 was below 100 nM.
`COC(=O)c1nc(C(C)(C)NC(=O)c2ccc3c(C4CCCCC4)c4n(c3c2)CCOc2ccccc2-4)oc1C` [Example 2-235, methyl 2-{1-[(12-cyclohexyl-6,7-dihydro-5-oxa-7a-azadibenzo[a,e]azulene-9-carbonyl)amino]-1-methylethyl}-5-methyloxazole-4-carboxylate]: the IC50 is below 100 nM.
For `CN(C)CCOc1cccc2c1OCCn1c-2c(C2CCCCC2)c2ccc(C(=O)O)cc21` [Example 2-463, 12-cyclohexyl-4-(2-dimethylaminoethoxy)-6,7-dihydro-5-oxa-7a-azadibenzo[a,e]azulene-9-carboxylic acid monohydrochloride], the IC50 is below 100 nM.
In turn, `COCC[C@H]1CCCN(CCN2CCn3c(c(C4CCCCC4)c4ccc(C(=O)O)cc43)-c3ccc(C)cc32)C1` [Example 1-409, 13-cyclohexyl-5-{2-[(R)-3-(2-methoxyethyl)piperidin-1-yl]ethyl}-3-methyl-6,7-dihydro-5H-benzo[5,6][1,4]diazepino[7,1-a]indole-10-carboxylic acid dihydrochloride] registered an IC50 below 100 nM.
Next, `CC(C)N1CCCC(CCN2CCn3c(c(C4CCCCC4)c4ccc(C(=O)O)cc43)-c3ccc(Cl)cc32)C1` (stereo not shown) [Example 1-229, 3-chloro-13-cyclohexyl-5-[2-(1-isopropylpiperidin-3-yl)ethyl]-6,7-dihydro-5H-benzo[5,6][1,4]diazepino[7,1-a]indole-10-carboxylic acid dihydrochloride]: below 100 nM; `COc1ccc2c(c1)OCCn1c-2c(C2CCCCC2)c2ccc(C(=O)N[C@@H](Cc3c[nH]c4ccc(OCC(=O)O)cc34)c3csc(C)n3)cc21` [Example 2-440, {3-[(S)-2-[(12-cyclohexyl-3-methoxy-6,7-dihydro-5-oxa-7a-azadibenzo[a,e]azulene-9-carbonyl)amino]-2-(2-methylthiazol-4-yl)ethyl]-1H-indol-5-yloxy}acetic acid]: below 100 nM.
As to `O=C(O)c1ccc2c(C3CCCCC3)c3n(c2c1)CCOc1c(OCc2cc(N4CCCC4=O)ccc2N2CCOCC2)cccc1-3` [Example 2-471, 12-cyclohexyl-4-[2-(morpholin-4-yl)-5-(2-oxopyrrolidin-1-yl)benzyloxy]-6,7-dihydro-5-oxa-7a-azadibenzo[a,e]azulene-9-carboxylic acid monohydrochloride], the IC50 is below 100 nM.
Compound `CC(=O)N(C)CC[C@@H]1CCCN(CCN2CCn3c(c(C4CCCCC4)c4ccc(C(=O)O)cc43)-c3ccc(C)cc32)C1` [Example 1-553, 5-(2-{(S)-3-[2-(N-acetyl-N-methylamino)ethyl]piperidin-1-yl}ethyl)-13-cyclohexyl-3-methyl-6,7-dihydro-5H-benzo[5,6][1,4]diazepino[7,1-a]indole-10-carboxylic acid dihydrochloride] registered an IC50 below 100 nM.
Compound `CC(C)(C)OC(=O)N1CCN(CCN2CCn3c(c(C4CCCCC4)c4ccc(C(=O)O)cc43)-c3ccccc32)CC1` [Example 1-95, 5-[2-(4-tert-butoxycarbonylpiperazin-1-yl)ethyl]-13-cyclohexyl-6,7-dihydro-5H-benzo[5,6][1,4]diazepino[7,1-a]indole-10-carboxylic acid dihydrochloride] gave an IC50 below 100 nM.
On to `O=C(O)c1ccc2c(C3CCCCC3)c3n(c2c1)CCN(CC(=O)N1CCCC1)c1ccccc1-3` [Example 1-56, 13-cyclohexyl-5-[2-oxo-2-(pyrrolidin-1-yl)ethyl]-6,7-dihydro-5H-benzo[5,6][1,4]diazepino[7,1-a]indole-10-carboxylic acid monohydrochloride], for which the IC50 was below 100 nM.
With `CCN(CCN1CCCC(COC)C1)c1cccc2c1OCCn1c-2c(C2CCCCC2)c2ccc(C(=O)O)cc21` (stereo not shown) [Example 2-274, 12-cyclohexyl-4-{N-ethyl-N-[2-(3-methoxymethylpiperidin-1-yl)ethyl]amino}-6,7-dihydro-5-oxa-7a-azadibenzo[a,e]azulene-9-carboxylic acid dihydrochloride] the figure was below 100 nM; with `CCc1ccc2c(c1)N(CCN1CCCC(COC)C1)CCn1c-2c(C2CCCCC2)c2ccc(C(=O)O)cc21` (stereo not shown) [Example 1-366, 13-cyclohexyl-3-ethyl-5-[2-(3-methoxymethylpiperidin-1-yl)ethyl]-6,7-dihydro-5H-benzo[5,6][1,4]diazepino[7,1-a]indole-10-carboxylic acid dihydrochloride], below 100 nM.
Regarding `O=C(O)c1ccc2c(C3CCCCC3)c3n(c2c1)CCN(CCN1CCC2CCCCC2C1)c1ccccc1-3` (stereo not shown) [Example 1-146, 13-cyclohexyl-5-[2-(octahydroisoquinolin-2-yl)ethyl]-6,7-dihydro-5H-benzo[5,6][1,4]diazepino[7,1-a]indole-10-carboxylic acid dihydrochloride], the IC50 was below 100 nM.
On to `CCN(CC)CCCCN1CCn2c(c(C3CCCCC3)c3ccc(C(=O)O)cc32)-c2ccc(Cl)cc21` [Example 1-424, 3-chloro-13-cyclohexyl-5-(4-diethylaminobutyl)-6,7-dihydro-5H-benzo[5,6][1,4]diazepino[7,1-a]indole-10-carboxylic acid], for which the IC50 was below 100 nM.
As to `CCOc1ccc2c(c1)N(CCN1CCCC(COC)C1)CCn1c-2c(C2CCCCC2)c2ccc(C(=O)O)cc21` (stereo not shown) [Example 1-370, 13-cyclohexyl-3-ethoxy-5-[2-(3-methoxymethylpiperidin-1-yl)ethyl]-6,7-dihydro-5H-benzo[5,6][1,4]diazepino[7,1-a]indole-10-carboxylic acid], the IC50 is below 100 nM.
For the compound `O=C(O)c1ccc2c(C3CCCCC3)c3n(c2c1)CCN(CC(=O)N1Cc2ccccc2C1)c1ccccc1-3` [Example 1-140, 13-cyclohexyl-5-[2-(1,3-dihydroisoindol-2-yl)-2-oxoethyl]-6,7-dihydro-5H-benzo[5,6][1,4]diazepino[7,1-a]indole-10-carboxylic acid monohydrochloride], the IC50 was below 100 nM.
With `COC(=O)c1ccc2c(C3CCCCC3)c3n(c2c1)CCN(CCN(C)C)c1cc(OCc2cccc(C(=O)O)c2)ccc1-3` [Example 1-583, methyl 3-(3-carboxybenzyloxy)-13-cyclohexyl-5-(2-dimethylaminoethyl)-6,7-dihydro-5H-benzo[5,6][1,4]diazepino[7,1-a]indole-10-carboxylate dihydrochloride] the figure was 100 to 1000 nM.
For the compound `COC(=O)[C@H](Cc1ccc(O)c(Cl)c1)NC(=O)c1ccc2c(C3CCCCC3)c3n(c2c1)CCOc1cc(OC)ccc1-3` [Example 2-363, methyl (S)-3-(3-chloro-4-hydroxyphenyl)-2-[(12-cyclohexyl-3-methoxy-6,7-dihydro-5-oxa-7a-azadibenzo[a,e]azulene-9-carbonyl)amino]propionate], the IC50 is below 100 nM.
The compound `CN(C)CCN1CCn2c(c(C3CCCCC3)c3ccc(C(=O)O)cc32)-c2ccc(OCc3cccc(N4CCCC4=O)c3)cc21` [Example 1-585, 13-cyclohexyl-5-(2-dimethylaminoethyl)-3-[3-(2-oxopyrrolidin-1-yl)benzyloxy]-6,7-dihydro-5H-benzo[5,6][1,4]diazepino[7,1-a]indole-10-carboxylic acid trihydrochloride] yielded an IC50 below 100 nM.
As for `CC1CN(CCN2CCn3c(c(C4CCCCC4)c4ccc(C(=O)O)cc43)-c3ccc(Cl)cc32)CCO1` (stereo not shown) [Example 1-328, 3-chloro-13-cyclohexyl-5-[2-(2-methylmorpholin-4-yl)ethyl]-6,7-dihydro-5H-benzo[5,6][1,4]diazepino[7,1-a]indole-10-carboxylic acid dihydrochloride], the IC50 is below 100 nM.
Regarding `CN1CCn2c(c(C3CCCCC3)c3ccc(C(=O)O)cc32)-c2ccc(OCCCN3CCCCC3)cc21` [Example 1-496, 13-cyclohexyl-5-methyl-3-[3-(piperidin-1-yl)propoxy]-6,7-dihydro-5H-benzo[5,6][1,4]diazepino[7,1-a]indole-10-carboxylic acid dihydrochloride], the IC50 is below 100 nM.
As for `CN(C)CCN1CCn2c(c(C3CCCCC3)c3ccc(C(=O)O)cc32)-c2ccccc21` [Example 1-99, 13-cyclohexyl-5-(2-dimethylaminoethyl)-6,7-dihydro-5H-benzo[5,6][1,4]diazepino[7,1-a]indole-10-carboxylic acid dihydrochloride], the IC50 was below 100 nM.
As to `CCN1CCN(C(=O)CN2CCn3c(c(C4CCCCC4)c4ccc(C(=O)O)cc43)-c3ccc(OC)cc32)CC1` [Example 1-66, 13-cyclohexyl-5-[2-(4-ethylpiperazin-1-yl)-2-oxoethyl]-3-methoxy-6,7-dihydro-5H-benzo[5,6][1,4]diazepino[7,1-a]indole-10-carboxylic acid dihydrochloride], the IC50 was below 100 nM.
In the case of `O=C(O)c1ccc2c(C3CCCCC3)c3n(c2c1)CCCN(CCN1CCCCC1)c1cc(Cl)ccc1-3` [Example 8-7, 3-chloro-14-cyclohexyl-5-[2-(piperidin-1-yl)ethyl]-5,6,7,8-tetrahydrobenzo[6,7][1,5]diazocino[8,1-a]indole-11-carboxylic acid dihydrochloride], the IC50 was below 100 nM.
With `CCN(C(=O)CN1CCCCC1)c1cccc2c1OCCn1c-2c(C2CCCCC2)c2ccc(C(=O)O)cc21` [Example 2-178, 12-cyclohexyl-4-{N-ethyl-N-[2-(piperidin-1-yl)acetyl]amino}-6,7-dihydro-5-oxa-7a-azadibenzo[a,e]azulene-9-carboxylic acid monohydrochloride] the figure was below 100 nM.
